Laboratory results from patent US20240247252A1, “NOVEL COMPOUNDS FOR THE DEVELOPMENT OF REVERSIBLE COVALENT DRUGS” (The Trustees of Boston College, priority 2023, published 2024).
Positions of bridges follow the written chain, without caps; N, C: chain ends. Non-standard residues stand in square brackets, D forms with d. Residues, ends and D or L forms follow the SMILES beside them. *: point of attachment. X1 = O=Cc1ccccc1NCc1cc(C(=O)*)ccc1B(O)O; X2 = CC(=O)c1ccc(OCC(=O)*)cc1B(O)O; Dap = NC[C@H](N)C(=O)O

Key:
sortase A (SrtA) [1] = target: T1, sortase A (SrtA) (Staphylococcus aureus, UniProt Q2FV99); experiment: biochemical; format: binding
Description: For peptide conjugation, a —COOH derivative of RMR1 and 2-APBA was synthesized respectively. […] The resulting peptides were assessed for SrtA binding through a fluorescence polarization-based competition assay, in which a fluorophore labeled W7 (W7-F) was used as a reporter.

sortase A (SrtA) [2] = target: T1, sortase A (SrtA); experiment: SrtA binding kinetics, competition assay using W7-F as fluorescence reporter
Description: FIG. 1 illustrates reversible covalent inhibition of SrtA. […] The peptide's termini and the proximal lysine residues are labeled with the lysine ε-amines colored blue. […] FIG. 1(d) and FIG. 1(e) show SrtA binding kinetics of P3 and P5 recorded via a competition assay using W7-F as a fluorescence reporter.
Kinetic characterization of the P5-SrtA binding yielded a kon of 6.3 M^−1 s^−1, which is ˜300 times faster than the RMR1-lysine conjugation. The koff was determined to be 8.2×10^−6 s^−1, 4 times slower than the RMR1-lysine conjugation. The faster on-rate and slower off-rate are expected for the cooperative action between the covalent warhead and the W7 peptide that binds SrtA noncovalently.

[3] = test system: SrtA on live S. aureus cells; experiment: SrtA inhibition on live S. aureus cells, labeling by fluorescent SrtA substrate FAM-GSLPETGGS, flow cytometry; format: cell-based, Staphylococcus aureus; details: live S. aureus in LB media, read-out: IC50 of SrtA-mediated fluorescence labeling
Description: The peptides for SrtA inhibition on live S. aureus cells was further tested. A fluorescently labeled SrtA substrate (FAM-GSLPETGGS) was mixed with S. aureus in LB media with or without a peptide inhibitor. The SrtA-mediated bacterial labeling was assessed using fluorescence microscopy and flow cytometry.

[4] = test system: SrtA on live S. aureus cells; experiment: Long-lasting SrtA inhibition on S. aureus cells after washing away unbound inhibitor; format: cell-based, Staphylococcus aureus; details: unbound inhibitor washed away before substrate added, flow cytometry after 6 hours of incubation
Description: To test this hypothesis, the S. aureus cells was treated with P5 and then the unbound inhibitor was washed away before the fluorescent SrtA substrate was added. The S. aureus cells were subjected to flow cytometry analysis after 6 hours of incubation.

T1 sequence (Q2FV99 whole entry): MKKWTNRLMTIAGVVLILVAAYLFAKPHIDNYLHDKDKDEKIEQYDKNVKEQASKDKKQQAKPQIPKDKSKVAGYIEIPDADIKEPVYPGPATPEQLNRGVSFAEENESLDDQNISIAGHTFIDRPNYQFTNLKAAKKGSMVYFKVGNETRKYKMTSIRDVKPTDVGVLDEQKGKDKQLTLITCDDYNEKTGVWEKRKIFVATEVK

Question: Which results are given for CC[C@H](C)[C@@H]1NC(=O)[C@H](CC(C)C)NC(=O)[C@@H](NC(=O)[C@H](C)N)CSSC[C@@H](C(=O)NCC(=O)NCC(=O)NCC(=O)N[C@@H](CNC(=O)COc2ccc(C(C)=O)c(B(O)O)c2)C(N)=O)NC(=O)CNC(=O)CNC(=O)[C@H](Cc2c[nH]c3ccccc23)NC(=O)[C@H]([C@@H](C)O)NC(=O)[C@@H]2CCCN2C1=O [Compound P3] (H-ACLIPTWGGCGGG[Dap](X2)-NH2; disulfide 2-10)?
Answer: IC50 (sortase A (SrtA) [1]): 4.6 µM; SrtA binding kinetics in words (sortase A (SrtA) [2]): reached equilibrium instantaneously; IC50 [3]: 3.7 µM; inhibition of SrtA-mediated fluorescence labeling after washing [4]: marginal reduction

Question: With CC[C@H](C)[C@@H]1NC(=O)[C@H](CC(C)C)NC(=O)[C@@H](NC(=O)[C@H](C)NC(C)=O)CSSC[C@@H](C(=O)NCC(=O)NCC(=O)NCC(=O)N[C@@H](CNC(=O)c2ccc(B(O)O)c(CNc3ccccc3C=O)c2)C(N)=O)NC(=O)CNC(=O)CNC(=O)[C@H](Cc2c[nH]c3ccccc23)NC(=O)[C@H]([C@@H](C)O)NC(=O)[C@@H]2CCCN2C1=O [Compound P5] (Ac-ACLIPTWGGCGGG[Dap](X1)-NH2; disulfide 2-10) as the compound, how does the IC50 (sortase A (SrtA) [1]) read?
Answer: The IC50 was 1.3 µM.

Question: What about the koff (sortase A (SrtA) [2]) of the same compound?
Answer: Its koff is 8.2e-06 s⁻¹.

Question: And the “koff, times slower than the RMR1-lysine conjugation” value (sortase A (SrtA) [2])?
Answer: Its value is 4 times.

Question: What about the kon (sortase A (SrtA) [2]) of the same compound?
Answer: The kon was 6.3 M⁻¹ s⁻¹.

Question: What about the “kon, times faster than the RMR1-lysine conjugation” value (sortase A (SrtA) [2]) of the same compound?
Answer: Its value is about 300 times.

Question: With CC[C@H](C)[C@@H]1NC(=O)[C@H](CC(C)C)NC(=O)[C@@H](NC(=O)[C@H](C)NC(=O)CNC(=O)CNC(=O)CNC(=O)COc2ccc(C(C)=O)c(B(O)O)c2)CSSC[C@@H](C(N)=O)NC(=O)CNC(=O)CNC(=O)[C@H](Cc2c[nH]c3ccccc23)NC(=O)[C@H]([C@@H](C)O)NC(=O)[C@@H]2CCCN2C1=O [Compound P7] (X2-GGGACLIPTWGGC-NH2; disulfide 5-13) as the compound, how does the IC50 (sortase A (SrtA) [1]) read?
Answer: The IC50 was 4.5 µM.

Question: CC[C@H](C)[C@@H]1NC(=O)[C@H](CC(C)C)NC(=O)[C@@H](NC(=O)[C@H](C)NC(=O)CNC(=O)CNC(=O)CNC(=O)c2ccc(B(O)O)c(CNc3ccccc3C=O)c2)CSSC[C@@H](C(N)=O)NC(=O)CNC(=O)CNC(=O)[C@H](Cc2c[nH]c3ccccc23)NC(=O)[C@H]([C@@H](C)O)NC(=O)[C@@H]2CCCN2C1=O [Compound P8] (X1-GGGACLIPTWGGC-NH2; disulfide 5-13) was tested. Which IC50 (sortase A (SrtA) [1]) did it give?
Answer: The IC50 was 3.8 µM.

Question: How did the IC50 (sortase A (SrtA) [1]) turn out when CC[C@H](C)[C@@H]1NC(=O)[C@H](CC(C)C)NC(=O)[C@@H](NC(=O)[C@H](C)N)CSSC[C@@H](C(N)=O)NC(=O)CNC(=O)CNC(=O)[C@H](Cc2c[nH]c3ccccc23)NC(=O)[C@H]([C@@H](C)O)NC(=O)[C@@H]2CCCN2C1=O [Compound W7] (H-ACLIPTWGGC-NH2; disulfide 2-10) was run?
Answer: Its IC50 is 17 µM.
